Source: ChEMBL document CHEMBL5729147, “Inhibitors of plasma kallikrein and uses thereof” (2022)

Molecular target: Plasma kallikrein (Homo sapiens, UniProt P03952)
Assay: Inhibitory Activity Assay: Example compounds were evaluated for inhibition of the human activated kallikrein enzyme in two formats of an assay employing a fluorogenic peptide substrate. In one assay format, the concentrations of reagents were as follows: 20 mM Tris pH 7.5, 1 mM EDTA, 150 mM sodium chloride, 0.1% PEG-400, 0.1% Triton X-100, 500 pM activated kallikrein enzyme, 300 uM Pro-Phe-Arg-7-amido-4-methylcoumarin substrate. Prior to reaction initiation with substrate, enzyme and inhibitors were preincubated for 30 min at RT. After initiation with substrate, reactions were incubated for 10 min at RT and fluorescence emission at 460 nm from 380 nm excitation measured with a microplate reader. In another assay format, the concentrations of reagents were as follows: 20 mM Tris pH 7.5, 1 mM EDTA, 150 mM sodium chloride, 0.1% PEG-400, 0.1% Triton X-100, 5 pM activated kallikrein enzyme, 300 uM Pro-Phe-Arg-7-amido-4-methylcoumarin substrate. Prior to reaction initiation with substrate, enzyme and inhibitors were preincubated for 30 min at RT. After initiation with substrate, reactions were incubated for 18 h at RT and fluorescence emission at 460 nm from 380 nm excitation measured with a microplate reader.

Sequence of Plasma kallikrein (P03952 20-390 limits assumed): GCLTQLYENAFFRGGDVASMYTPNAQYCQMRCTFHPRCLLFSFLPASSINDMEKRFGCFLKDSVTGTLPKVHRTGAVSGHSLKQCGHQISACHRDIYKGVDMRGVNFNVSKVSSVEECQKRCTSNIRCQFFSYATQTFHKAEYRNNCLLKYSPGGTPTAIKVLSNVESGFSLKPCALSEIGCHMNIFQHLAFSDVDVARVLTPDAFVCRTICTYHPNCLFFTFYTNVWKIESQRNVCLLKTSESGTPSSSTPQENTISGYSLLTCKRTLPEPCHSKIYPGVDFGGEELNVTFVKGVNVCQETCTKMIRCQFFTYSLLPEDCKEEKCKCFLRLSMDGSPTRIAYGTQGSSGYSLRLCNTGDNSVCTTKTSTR
Sequence of Plasma kallikrein (P03952 391-638 limits assumed): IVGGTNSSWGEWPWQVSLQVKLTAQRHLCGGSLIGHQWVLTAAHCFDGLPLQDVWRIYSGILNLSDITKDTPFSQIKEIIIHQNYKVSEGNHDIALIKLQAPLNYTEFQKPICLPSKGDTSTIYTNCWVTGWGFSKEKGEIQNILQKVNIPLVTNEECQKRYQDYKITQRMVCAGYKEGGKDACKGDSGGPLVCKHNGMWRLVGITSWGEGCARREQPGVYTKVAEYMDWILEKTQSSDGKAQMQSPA

Structure (SMILES): O=C(NCc1ncn2ccc(Cl)cc12)c1cnn(Cc2cc3cc(C4CC4)ccn3n2)c1
- EC50: < 1 nM
